Assays:
[1] = target: T1, ASADH from Candida albicans (CalASADH) (Candida albicans, UniProt Q5ALM0); assay: Time-dependent inactivation of CalASADH (pre-incubation, residual activity); format: biochemical
T1 construct: His tag; made in house
T1 sequence (Q5ALM0 1-365): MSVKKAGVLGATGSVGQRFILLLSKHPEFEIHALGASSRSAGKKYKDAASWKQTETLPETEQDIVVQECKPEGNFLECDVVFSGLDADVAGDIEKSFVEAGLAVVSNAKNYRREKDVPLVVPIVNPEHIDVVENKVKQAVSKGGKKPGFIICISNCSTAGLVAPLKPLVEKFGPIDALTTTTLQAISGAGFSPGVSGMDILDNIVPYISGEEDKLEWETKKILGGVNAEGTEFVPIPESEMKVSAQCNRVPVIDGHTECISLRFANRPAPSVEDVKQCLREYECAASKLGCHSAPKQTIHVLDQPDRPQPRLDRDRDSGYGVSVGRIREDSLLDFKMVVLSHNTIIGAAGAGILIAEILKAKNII
Method: Aryl vinyl sulfones can be reasonably potent inhibitors of CalASADH, each inhibitor was then tested to determine if it would function as an enzyme inactivator. […] In most cases the residual enzyme activity, measured following a subsequent 20-fold dilution into an assay mixture, decreased to less than 5% of the control rate after incubation with low micromolar levels of these inactivators for 10 min or less. To determine the rate of inactivation the concentration of each vinyl sulfone in this pre-incubation mixture was then varied, centered around their initial measured Ki values. The rate of activity loss observed in each incubation reaction (kobs) was plotted against the inhibitor concentration to determine the inactivation rate (kinact) for that compound and the concentration that produces half-maximal inactivation (Ki). […] The proposed product of the reaction of the active site nucleophile (Cys-156) with this inactivator predicts key interactions of the p-nitro group with Arg-18 and Ser-187, and the protonation of the covalent intermediate by His-256. […] Reaction of this inactivator with the active site nucleophile (Cys-156) predicts keys interactions between its carboxyl group and several backbone amide nitrogens that would shift this adduct further from the active site base (His-256). […]

[2] = system: C. albicans cells; assay: C. albicans cell survival after exposure to inactivator; format: cell-based, Candida albicans; settings: 1 h exposure; for cell survival rate, in words: several concentrations, survival after 48 h
Method: According to some embodiments, vinyl sulfone compounds contain both polar and, in some cases, charged functional groups that would make cellular uptake more challenging. However, to test the possibility that these compounds could inhibit the growth of C. albicans, two inactivators were selected for examination. […] The cells were plated and their survival rates were measured after 48 h relative to a control growth in the absence of inactivator.

[3] = system: C. albicans; assay: Disk diffusion assay, C. albicans; format: cell-based; settings: aromatic compounds
Method: (§1) The following disk diffusion assays were performed with example compounds described above to assess the ability of compounds to inhibit growth of microorganism. A compound that inhibits its target enzyme may perform poorly for a number of reasons, including low solubility in water or slow rate of transport across a microbial membrane.

[4] = system: S. aureus; assay: Disk diffusion assay, S. aureus; format: cell-based; settings: aromatic compounds
Method: as §1

[5] = system: K pneumoniae; assay: Disk diffusion assay, K pneumoniae; format: cell-based; settings: aromatic compounds
Method: as §1

Row | SMILES | ASADH inactivation, in words [1] | cell survival ([2]; 25 μM, survival after 48 h relative to control) | cell survival rate, in words [2] | disk diffusion, C. albicans [3] | disk diffusion, S. aureus [4] | disk diffusion, K pneumoniae [5]
1 | CS(=O)(=O)/C=C/c1ccc(C(=O)O)cc1 [4-(methylsulfonylvinyl)benzoic acid] | very good ASADH inactivator | less than 75% | some decrease in cell survival rate |  |  | 
2 | CS(=O)(=O)/C=C/c1ccc2ccccc2n1 [2-MSV-quinoline, 2-(S-methylsulfonylvinyl)quinoline] |  |  |  | weak |  | 
3 | O=S(=O)(/C=C/c1ccncc1)c1ccccc1 [4-(phenylsulfonylvinyl)pyridine] | moderate inactivator |  | some decrease in cell survival rate |  |  | 
4 | CS(=O)(=O)/C=C/c1ccncc1 [4-MSV-pyridine, 4-(methylsulfonylvinyl)pyridine] |  |  |  | medium | medium | medium

Source: patent US20240180158A1, “COMPOUNDS HAVING SELECTIVE INACTIVATION ACTIVITY” (University of North Carolina at Wilmington, priority 2021, published 2024)
